# Assay results: patent publication US4156731A, “Heterocyclic oxime compounds and carbamoyloxime derivatives” (priority 1976, dated 1979)
# Key:
# Assay type in all cases: in vivo
# Set-up in all cases: key: A: Excellent control; B: Partial control; C: No control
# [1] = test system: two spotted mite (Tetranychus urticae Koch); test: Mite Foliage Spray Test; details: 500 ppm foliage spray, six days
# Method: (§1) Selected species of the new compounds were evaluated to determine their pesticidal activity against mites and certain insects, including anaphid, a caterpillar, a beetle and a fly.
# (§2) Suspensions of the test compounds were prepared by dissolving one gram of compound in 50 milliliters of acetone in which had been dissolved 0.1 gram (10 percent of the weight of compound) of an alkylphenoxy polyethoxyethanol surfactant, as an emulsifying or dispersing agent. The resulting solution was mixed into 150 milliliters of water to give roughly 200 milliliters of a suspension containing the compound in finely divided form. The thus-prepared stock suspension contained 0.5 percent by weight of test compound. The test concentrations in parts per million by weight employed in the tests described hereinbelow were obtained by appropriate dilutions of the stock suspension with water. The test procedures were as follows:
# Adults and nymphal stages of the two spotted mite (Tetranychus urticae Koch), reared on Tendergreen bean plants at 80±5 per cent relative humidity, were the test organisms. Infested leaves from a stock culture were placed on the primary leaves of two bean plants six to eight inches in height, growing in a two-and-a-half inch clay pot. 150-200 mites, a sufficient number for testing, transferred from the excised leaves to the fresh plants in a period of twenty four hours. Following the twenty four hour transfer period, the excised leaves were removed from the infested plants. The test compounds were formulated by diluting the stock suspension with water to give a suspension with water to give a suspension containing 500 parts of test compound per million parts of final formulation. The potted plants (one pot per compound) were placed on a revolving turntable and sprayed with 100-110 milliliters of test compound formulation by use of a DeVilbiss spray gun set at 40 psig. air pressure. This application, which lasted for 25 seconds, was sufficient to wet the plants to run-off. As a control, 100-110 milliliters of a water solution containing acetone and emulsifier in the same concentrations as the test compound formulation, but containing no test compound, were also sprayed on infested plants. The sprayed plants were held at 80±5 per cent relative humidity for six days, after which a mortality count of motile forms were made. Microscopic examination for motile forms was made on the leaves of the test plants. Any individual which was capable of locomotion upon prodding, was considered living.
# (§3) In these tests the pesticidal activity of the compounds against aphid, mite, Southern Armyworm, Mexican Bean Beetle, and house fly was rated as follows: […]
# [2] = test system: southern armyworm (Prodenia Eridania, (Cram.)); test: Southern Armyworm Leaf Spray Test; details: larvae, 500 ppm leaf spray, three days
# Method: as §1, §2
# Southern Armyworm Leaf Spray Test
# Larvae of the southern armyworm (Prodenia Eridania, (Cram.), reared on Tendergreen bean plants at a temperature of 80°±5° F. and a relative humidity of 50±5 per cent, constituted the test insects.
# The test compounds were formulated by diluting the stock suspension with water to give a suspension containing 500 parts of test compound per million parts of final formulation. Potted Tendergreen bean plants of standard height and age were placed on a revolving turntable and sprayed with […] of test compound formulation by use of a DeVilbiss spray gun set at 10 psig. air pressure.
# This application, which lasted 25 seconds, was sufficient to wet plants to run-off. As a control, 100-110 milliliters of a water-acetone-emulsifier solution containing no test compound were also sprayed on infested plants. When dry, the paired leaves were separated and each one was placed in a 9 centimeter Petric dish lined with moistened filter paper. Five randomly selected larvae were introduced into each dish and the dishes were closed. The closed dishes were labeled and held at 80°-85° F. for three days. Although the larvae could easily consume the whole leaf within twenty-four hours, no more food was added. Larvae which were unable to move the length of the body, even upon stimulation by prodding, were considered dead. Per cent mortality was recorded for various concentration levels.
# as §3
# [3] = test system: Mexican bean beetle (Epilachna varivestis, Muls.); test: Mexican Bean Beetle Leaf Spray Test; details: fourth instar larvae, 500 ppm leaf spray, three days
# Method: as §1, §2
# Mexican Bean Beetle Leaf Spray Test
# Fourth instar larvae of the Mexican bean beetle (Epilachna varivestis, Muls.), reared on Tendergreen bean plants at a temperature of 80°±5° F. and 50±5 per cent relative humidity, were the test insects.
# The test compounds were formulated by diluting the stock suspension with water to give a suspension containing 500 parts of test compound per million parts of final formulation. Potted Tendergreen bean plants of standard height and age were placed on a revolving turntable and sprayed with 100-110 milliliters of test compound formulation by use of DeVilbiss spray gun set at 10 psig air pressure. This application, which lasted 25 seconds, was sufficient to wet plants to run-off. As a control, 100-110 milliliters of a water-acetone-emulsifier solution containing no test compound were also sprayed on infested plants. When dry, the paired leaves were separated and each was placed in a 9 centimeter Petri dish lined with moistened filter paper. Five randomly selected larvae were introduced into each dish, and the dishes were closed. The closed dishes were labeled and held at a temperature of […]. for three days. Although the larvae could easily consume the leaf within 24 to 48 hours, no more food was added. Larvae which were unable to move the length of the body, even upon stimulation, were considered dead.
# as §3
# [4] = test system: bean aphid (Aphis fabae Scop.); test: Bean Aphid Foliage Spray Test; details: 500 ppm foliage spray, 24 hour holding period
# Method: as §1, §2
# Bean Aphid Foliage Spray Test
# Adults and nymphal stages of the bean aphid (Aphis fabae Scop.) reared on potted dwarf nasturtium plants at 65°-70° F. and 50-70 per cent relative humidity, constituted the test insects. For testing purposes, the number of aphids per pot was standardized to 100-150 by trimming plants containing excess aphids.
# The test compounds were formulated by diluting the stock suspension with water to give a suspension containing 500 parts of test compound per million parts of final formulation.
# The potted plants (one pot per compound tested) infested with 100-150 aphids, were placed on a revolving turntable and sprayed with 100-110 milliliters of test compound formulation by use of a DeVilbiss spray gun set at 40 psig. air pressure. This application, which lasted 25 seconds, was sufficient to wet the plants to run-off. As a control, 100-110 milliliters of a water-acetone-emulsifier solution containing no test compound were also sprayed on infested plants. After spraying, the pots were placed on their sides on a sheet of white standard mimeograph paper which had been previously ruled to facilitate counting. Temperature and humidity in the test room during the 24 hour holding period were 65°-70° F. and 50-70 per cent, respectively. Aphids which fell into the paper and were unable to remain standing after being uprighted were considered dead. Aphids remaining on the plants wre observed closely for movement and those which were unable to move the length of the body upon stimulator by prodding were considered dead. Per cent mortality was recorded for various concentration levels.
# as §3
# [5] = test system: house flies (Musca domestica, L.); test: Fly Bait Test; details: adults, 500 ppm in sugar bait, twenty four hours
# Method: as §1, §2
# Four to six day old adult house flies (Musca domestica, L.) reared according to the specifications of the Chemical Specialities Manufacturing Association (Blue Book, McNair-Dorland Co., NY., 1954; pages 234-244, 261) under controlled conditions of 80°±5° F. and 50±5 per cent relative humidity, were the test insects. The flies were immobilized by anesthetizing with carbon dioxide and twenty five immobilized individuals, males and females, were transferred to a cage consisting of a standard food stainer about five inches in diameter which was inverted over a wrapping-paper-covered surface. The test compounds were formulated by diluting the stock suspension with a 10 per cent (by weight) sugar solution to give a suspension containing 500 parts of test compound per million parts of final formulation, by weight. Ten milliliters of the test formulation were added to a souffle cup containing a one inch square of an absorbent cotton pad. This bait cup was introduced and centered on the blotting paper under the food strainer prior to admitting the anesthetized flies. The caged flies were allowed to feed on the bait for twenty four hours, at a temperature of 80°±5° F. and the relative humidity of 50±5 per cent.
# as §3
SMILES,Mite pesticidal activity rating [1],Southern Armyworm pesticidal activity rating [2],Mexican Bean Beetle pesticidal activity rating [3],Bean Aphid pesticidal activity rating [4],House-Fly pesticidal activity rating [5]
CN(C)N=C1SC(=NOC(=O)N(C)SC(Cl)(Cl)Cl)C(C)(C)S1 [LVI],A,A,A,A,A
CN=C1SC(=NOC(=O)N(C)SC(Cl)(Cl)Cl)C(C)(C)S1 [XLV],A,A,A,A,A
CN(SSC(C)(C)C)C(=O)ON=C1SC(=C(C#N)C#N)SC1(C)C [LXIV],C,B,A,A,B
CNC(=O)ON=C1CSC(=CC(C)=O)S1 [LXXVI],C,C,B,C,A
CCCCN=C1SC(=NOC(=O)N(C)SC(Cl)(Cl)Cl)C(C)(C)S1 [LIII],A,C,A,A,A
CC(C)N=C1SC(=NOC(=O)N(C)SSC(C)(C)C)C(C)(C)S1 [XLIX],A,C,A,A,A
CNC(=O)ON=C1SC(=CC(C)=O)SC1(C)C [LXVIII],C,A,A,A,A
CCOC(=O)C(C#N)=C1SC(=NOC(=O)NC)C(C)(C)S1 [LXI],C,C,A,C,C
CN(SN(C)C(=O)ON=C1SC(=C(C#N)C#N)SC1(C)C)C(=O)ON=C1SC(=C(C#N)C#N)SC1(C)C [LXXVII],C,C,A,C,C
CN(SSc1ccc(C(C)(C)C)cc1)C(=O)ON=C1SC(=C(C#N)C#N)SC1(C)C [LXXII],C,C,A,A,C
CN(SC(Cl)(Cl)Cl)C(=O)ON=C1SC(=NS(C)(=O)=O)SC1(C)C [LVIII],C,C,B,C,B
CN(SN1CCOCC1)C(=O)ON=C1SC(=C(C#N)C#N)SC1(C)C [LXXIV],C,B,C,A,C
CN(SC(Cl)(Cl)Cl)C(=O)ON=C1SC(=NC(C)(C)C)SC1(C)C [LI],B,C,A,A,A
CN(C)N=C1SC(=NOC(=O)N(C)SSC(C)(C)C)C(C)(C)S1 [XLII],A,A,A,A,A
